From patent US20070167408A1, “NOVEL ALKYL PHOSPHOLIPID DERIVATIVES WITH REDUCED CYTOTOXICITY AND USES THEREOF” (ZENTARIS GmbH, priority 2005, published 2007)
Converted amounts (≈) assume the structure as drawn.

Legend:
[1] = tested on: Trypanosoma cruzi (Tulahuan-LACZ amstigotes in PEM); assay: In vitro drug activity assay, protozoon A; type: cell-based; details: amastigotes in murine peritoneal macrophages, 3 days
Protocol: (§1) In vitro activity of selected compounds of the invention against different protozoa was assessed as follows.
Murine (CD1) peritoneal macrophages were harvested 24 hours after starch induction and dispensed into 96-well plates at a concentration of 4×10^5 mL. After 24 hours, the cells were infected with Trypanosoma cruzi Tulahuan LAC-Z amastigotes (grown and cultured according to Buckner et al., Infection and Immunity 1999, 67(1): 403-409). 24 hours later, the infected cells were exposed to the test compounds (compounds of the invention as well as known prior art compounds) for 3 days and 50 μL of 500 μM CPRG-1% Nonidet P-40 was added to each well. The plates were read after 2 to 5 hours at 570 nm (Buckner et al., Antimicrobial Agents and Chemotherapy 1996, 40(11): 2592-2597). ED50 values were calculated with Msxlfit (IDBS).
(§2) The following protozoa were assessed: • A) Trypanosoma cruzi (Tulahuan-LACZ amstigotes in PEM, Lorente S O et al., Antimicrobial agents and chemotherapy 2004, 48(8): 2937-2950; Buckner et al., Infection and Immunity 1999, 67(1): 403-409; Buckner et al., Antimicrobial Agents and Chemotherapy 1996, 40(11): 2592-2597) • B) Trypanosoma brucei rhodesiense (strain STIB900, Lorente S O et al., Antimicrobial agents and chemotherapy 2004, 48(8): 2937-2950; Habtemariam S, BMC Pharmacology 2003, 3:6) • C) Plasmodium falciparum (strain K1, Korsinczky M et al., Antimicrobial agents and chemotherapy 2000, 44(8): 2100-2108; Thaitong S and Beale G H, Trans. R. Soc. Trop. Med. Hyg. 1981, 75: 271-273; Trager W and Jensen J B, Science 1976, 193: 673-675) • D) Plasmodium faiciparum (strain 3D7, Mu et al., PLoS Biology 2005, 3(10): e335)

[2] = tested on: Candida albicans ATCC 10231; assay: Anti-fungal broth microdilution (MIC), fungus D; type: cell-based; details: yeast protocol, more than 80% inhibition, 48 h
Protocol: (§3) Anti-fungal activity of selected compounds of the invention was assessed by means of anti-fungal susceptibility tests as follows.
(§4) The antifungal activities of the compounds of the invention against different fungi were measured according to standard broth microdilution methods of the US National Committee for Clinical Laboratory standards (NCCLS) for yeasts (NCCLS document M27-A, 1997) and filamentous fungi (NCCLS document M38-A, 2002).
(§5) Stock solutions of compounds of the invention were freshly prepared on the days of experiments equal to 1.28 mg/10 ml media. Serial dilutions were performed to achieve the following testing concentrations: 64 μg/ml, 32 μg/ml, 16 μg/ml, 8 μg/ml, 4 μg/ml, 2 μg/ml, 1 μg/ml, 0.5 μg/ml, 0.25 μg/ml and 0.125 μg/ml.
(§6) An inoculum of 10^6 CFU/ml of the fungi strain was prepared in the appropriate medium and transferred to test tubes for incubation.
(§7) The method is used to determine the minimum inhibitory concentrations (MIC) of drugs on fungi strains. […] For the filamentous fungi protocol, MIC determination took place after 48 to 72 h of culture at 35° C. and was defined at that concentration which produced more than 50% visible growth inhibition.

[3] = tested on: Cryptococcus neoformans ATCC 90112; assay: Anti-fungal broth microdilution (MIC), fungus H; type: cell-based; details: yeast protocol, more than 80% inhibition, 48 h
Protocol: as §3, §4, §5, §6, §7

[4] = tested on: Plasmodium falciparum (strain K1); assay: In vitro drug activity assay, protozoon C; type: cell-based; details: strain K1, 3[H]-hypoxanthine method
Protocol: as §1
(§8) Plasmodium falciparum strain K1 and strain 3D7 parasites were cultured according to Trager W and Jensen J B (Science 1976, 193: 673-675). In vitro drug susceptibility assays with the test compounds were carried out according to Korsinczky M et al. (Antimicrobial agents and chemotherapy 2000, 44(8): 2100-2108) and Fivelman Q L et al. (Antimicrobial agents and chemotherapy 2004, 48(11): 4097-4102) using a ^3[H]-hypoxanthine radioisotope method. ED50 values were calculated with Msxlfit (IDBS).
as §2

[5] = tested on: Aspergillus fumigatus ATCC 204305; assay: Anti-fungal broth microdilution (MIC), fungus A; type: cell-based; details: filamentous protocol, more than 50% growth inhibition, 48 to 72 h
Protocol: as §3, §4, §5, §6, §7

[6] = tested on: Aspergillus fumigatus 322-384; assay: Anti-fungal broth microdilution (MIC), fungus B; type: cell-based; details: filamentous protocol, more than 50% growth inhibition, 48 to 72 h
Protocol: as §3, §4, §5, §6, §7

[7] = tested on: Plasmodium faiciparum (strain 3D7); assay: In vitro drug activity assay, protozoon D; type: cell-based, Plasmodium falciparum; details: strain 3D7, 3[H]-hypoxanthine method
Protocol: as §1, §8, §2

[8] = tested on: Cryptococcus neoformans H99; assay: Anti-fungal broth microdilution (MIC), fungus I; type: cell-based; details: yeast protocol, more than 80% inhibition, 48 h
Protocol: as §3, §4, §5, §6, §7

[9] = tested on: Candida parapsilosis ATCC 22019; assay: Anti-fungal broth microdilution (MIC), fungus G; type: cell-based; details: yeast protocol, more than 80% inhibition, 48 h
Protocol: as §3, §4, §5, §6, §7

[10] = tested on: Candida albicans TS3; assay: Anti-fungal broth microdilution (MIC), fungus F; type: cell-based; details: yeast protocol, more than 80% inhibition, 48 h
Protocol: as §3, §4, §5, §6, §7

[11] = tested on: Trypanosoma brucei rhodesiense (strain STIB900); assay: In vitro drug activity assay, protozoon B; type: cell-based; details: bloodstream form trypomastigotes, 72 hours, Alamar Blue
Protocol: as §1
Trypanosoma brucei rhodesiense STIB900 bloodstream form trypomastigotes were maintained in HMI-18 medium (Hirumi H, Hirumi K, J Parasitol. 1989, 75(6):985-989) with 15% heat-inactivated fetal calf serum at 37° C., 5% CO2, humidified atmosphere. Trypomastigotes were washed and resuspended in fresh medium at a concentration of 2×10^5 mL. Test compounds were given to the trypomastigotes and plates were incubated for 72 hours at 37° C., 5% CO2, humidified atmosphere. At 72 hours the plates were assessed microscopically before Alamar Blue was added (Raz et al., Acta Trop. 1997, 68: 139-147). Plates were read after 5 to 6 hours at EX/EM 530/585 nm with a filter cutoff at 550 nm. ED50 values were calculated with Msxlfit (IDBS).
as §2

[12] = tested on: Candida albicans ATCC 90028; assay: Anti-fungal broth microdilution (MIC), fungus E; type: cell-based; details: yeast protocol, more than 80% inhibition, 48 h
Protocol: as §3, §4, §5, §6, §7

[13] = tested on: Cryptococcus gattii ATCC 32608; assay: Anti-fungal broth microdilution (MIC), fungus J; type: cell-based; details: yeast protocol, more than 80% inhibition, 48 h
Protocol: as §3, §4, §5, §6, §7

[14] = tested on: Aspergillus fumigatus 040-200167; assay: Anti-fungal broth microdilution (MIC), fungus C; type: cell-based; details: filamentous protocol, more than 50% growth inhibition, 48 to 72 h
Protocol: as §3, §4, §5, §6, §7

[15] = tested on: Moraxella catarrhalis DMS 11994 (ATCC 43617); assay: Anti-bacterial bouillon microdilution assay (MIC), bacterium D; type: cell-based; details: 24 h
Protocol: (§9) Selected compounds of the invention were tested in a bouillon microdilution assay method according to the DIN 58940 (www.din.de) guidelines for determination of susceptibility of bacterial strains with regard to cell growth inhibition. The assay method quantifies bacterial cell growth which corresponds to the turbidity of the liquid culture medium by photometric measurement carried out at 595 nm.
(§10) The method of MIC determination was performed according to DIN 58940-5. The volumina were adapted according to the microdilution method as described in DIN 58940-7 guideline.
(§11) Dependent on water solubility, compounds of the invention were dissolved either in water or ethanol in a concentration of 10 mg/ml. Subsequently, the stock was further diluted in water to a concentration of 512 μg/ml. The following serial dilutions (factor 2) were performed in water resulting in the following […] testing concentrations: 256 μg/ml, 128 μg/ml, 64 μg/ml, 32 μg/ml, 16 μg/ml, 8 μg/ml, 4 μg/ml, 2 μg/ml, 1 μg/ml, 0.5 μg/ml, 0.25 μg/ml and 0.125 μg/ml. Diluted compounds of the invention were transferred in 100 μl volume to the microtiter plate wells.
(§12) Pre-cultures of bacteria were grown in appropriate liquid media (refer to ATCC webpage, www.atcc.org) and afterwards were inoculated in corresponding liquid medium. 100 μl of the inoculums [adjusted to an amount of app. 1×10^6 microorganisms per ml (range of 10^5-10^8 microorganisms per ml)] were added to each of the testing compound concentrations and cultivated under the appropriate conditions.
(§13) Before and after incubation, bacterial growth was determined by photometric analysis against a positive control containing growing bacteria without compound and a sterile/negative control containing only the medium.

[16] = tested on: Bacteroides fragilis DSM 2151 (ATCC 25285); assay: Anti-bacterial bouillon microdilution assay (MIC), bacterium E; type: cell-based; details: anaerob, 24 h
Protocol: as §9, §10, §11, §12, §13

SMILES | ED50 (μg/mL), protozoon A [1] [µg/mL] | MIC, fungus D [2] [µg/mL] | MIC, fungus H [3] [µg/mL] | ED50 (μg/mL), protozoon C [4] [µg/mL] | MIC, fungus A [5] [µg/mL] | MIC, fungus B [6] [µg/mL] | ED50 (μg/mL), protozoon D [7] [µg/mL] | MIC, fungus I [8] [µg/mL] | MIC, fungus G [9] [µg/mL] | MIC, fungus F [10] [µg/mL] | ED50 (μg/mL), protozoon B [11] [µg/mL] | MIC, fungus E [12] [µg/mL] | MIC, fungus J [13] [µg/mL] | MIC, fungus C [14] [µg/mL] | MIC, bacterium D [15] [µg/mL] | MIC, bacterium E [16] [µg/mL]
CCCCCCCCCCCCCCCCOP(=O)([O-])OC1CC[N+](C)(Cc2ccccc2)CC1 (stereo not drawn) [Compound 1, Phosphoric acid 1-benzyl-1-methyl-piperidin-4-yl ester hexadecyl ester] | 1.71 (≈ 3.35 µM) | 2 (≈ 3.92 µM) | 1.5 (≈ 2.94 µM) | 6.93 (≈ 13.6 µM) | 2 (≈ 3.92 µM) | 2 (≈ 3.92 µM) | 9.97 (≈ 19.6 µM) | 2 (≈ 3.92 µM) | 3 (≈ 5.89 µM) | 1.5 (≈ 2.94 µM) | 18.80 (≈ 36.9 µM) | 1 (≈ 1.96 µM) | 1 (≈ 1.96 µM) | 4 (≈ 7.85 µM) |  | 
CCCCCCCCCCCCCCCCOP(=O)([O-])OCC[N+]12CCC(CC1)CC2 [Compound 3, Phosphoric acid 2-(1-aza-bicyclo[2.2.2]oct-1-yl)-ethyl ester hexadecyl ester] | 0.33 (≈ 0.718 µM) | 1 (≈ 2.18 µM) | 1.5 (≈ 3.26 µM) | 8.03 (≈ 17.5 µM) | 3 (≈ 6.53 µM) | 2 (≈ 4.35 µM) | 2.25 (≈ 4.9 µM) | 1 (≈ 2.18 µM) | 2 (≈ 4.35 µM) | 2 (≈ 4.35 µM) | 25.03 (≈ 54.5 µM) | 1 (≈ 2.18 µM) | 0.75 (≈ 1.63 µM) | 4 (≈ 8.7 µM) | 8 (≈ 17.4 µM) | 128 (≈ 278 µM)
